The values below come from patent US6031073A, “Cyclic polypeptides comprising a thioether linkage and methods for their preparation” (La Jolla Pharmaceutical Company, priority 1997, dated 2000).

For experiment [1], the target named is anticardiolipin antibody (serum of patient ACA-6501). Kind of experiment: competitive ELISA, binding of patient ACA-6501 serum to cardiolipin/β2-GPI coated plate. Further details: species or system human. The note with it: for IC50: amount of peptide that inhibited the human serum's binding by 50%, serum of patient ACA-6501 (GPL score 1500). As to the method:
(§1) The binding affinities of a number of the thioether cyclic polypeptides of the present invention to anticardiolipin antibody were determined by a competitive ELISA (i.e., enzyme-linked immunosorbent assay) and compared with binding affinities of the corresponding disulfide cyclic polypeptides (e.g., 3G3, 2G3, and G3).
(§2) Of 96 wells of a flat-bottom Immulon I microtiter plate (Dynatech Labs, Alexandria, Va.), 94 wells were coated with […] cardiolipin per well in 30 mL, of ethanol. The remaining two wells were used as controls and each received 30 mL, of ethanol. After overnight evaporation at 4° C., the plate was blocked for 2 hours at room temperature with 200 mL of 5% (w/v) fish gelatin in phosphate buffered saline (i.e., PBS, 0.15 M NaCl and 0.01 M Na2 HPO4 at pH 7.2). The plate was washed five times in Tris buffered saline (i.e., TBS, 0.15 M NaCl and 0.05 M Tris-HCl at pH 8.5). Then, β2 -glycoprotein I (i.e., β2 -GPI) was added as […] of 2.3% (v/v) IgG-depleted human serum (Sigma Chemical Co.) and incubated for 2 hours at room temperature.
(§3) During this incubation, peptide solutions (around 2 mg/mL) were prepared by dissolving thioether cyclic peptides in 3% fish gelatin in TBS. The serums of patient ACA-6501, who has a GPL (i.e., IgG Phospholipid) score of 1500, and patient ACA-6701, who has a GPL score of 102, were diluted about 40-fold in 3% fish gelatin in TBS-PBS (1:1). Variable amounts of each of peptides were combined with 22 mL of each of the diluted human serums and then made up to the final volume of 220 mL with 3% fish gelatin in TBS-PBS (1:1). For each peptide, at least four peptide concentrations were employed and each data point was determined in duplicate.
(§4) After 5 washes with TFBS, 100 mL of the peptide/human serum solution was added and the microplate was agitated at 40 rpm in an orbital shaker (American Scientific, Rotator V) for one hour at room temperature. The plate was washed extensively with TBS (5 times) and 100 mL of diluted (1/1000) alkaline phosphatase-conjugated goat anti-human IgG (Zymed, South San Francisco, Calif.) in 0.5% (w/v) BSA-TBS was added to each well (i.e., bovine serum albumin, BSA). The plate was then incubated for one hour at room temperature followed by addition of […]/well of PPMP solution (3 g/L phenolphthalein monophosphate plus 26.7 g/L 2-amino-2-methyl-1-propanol in water). The plate was allowed to develop at room temperature for 21 min and the reaction was stopped by adding 50 mL of 0.2 M Na2 HPO4 (Mallinckrodt) to each well. Blanks consisted of protein-coated wells that received similar treatment except human serum was not added to these wells. The plate was read at 550 nm using a microplate reader (Bio-Tek Instruments, Model EL 311).
(§5) Absorbance vs. amount of peptide added was plotted using Graph Pad Prism (Graph Pad Software, Inc.). The amount of peptide that inhibited the human serum's binding by 50%, known as IC50, was calculated from the graph at the intersection of half-maximal absorbance with amount of peptide added.
On the technique in general: In an ELISA, binding on a coated surface is turned into a signal by an enzyme label.

In experiment [2] the target is anticardiolipin antibody (serum of patient ACA-6701). Description: competitive ELISA, binding of patient ACA-6701 serum to cardiolipin/β2-GPI coated plate. The settings on record: amount of peptide that inhibited the human serum's binding by 50%; serum of patient ACA-6701 (GPL score 102). As for the experimental part:
as §1, §2, §3, §4, §5

Numbered stars: 1 amine (or outer) side, 2 acyl side, 3 side chain; on linkers, the order of the positions; unused ones are H or OH. Bridge positions count the residues as written; N and C are the ends. Square brackets hold non-standard residues; d marks the D form. Peptide text beside a SMILES is read from it. Abu(4-yl) = O=C([C@H](CC[*:3])N[*:1])[*:2]; hCys = N[C@@H](CCS)C(=O)O

The IC50 is the concentration that inhibits the measured activity by half. For `CC(C)C[C@@H]1NC(=O)[C@H](CCCCN)NC(=O)CNC(=O)[C@H](CC(C)C)NC(=O)[C@H](C(C)C)NC(=O)CNC(=O)[C@H](CC(C)C)NC(=O)[C@H](NC(=O)[C@@H]2CCCN2C(=O)CN)CSCC[C@@H](C(=O)N2CCC[C@H]2C(=O)NCC(=O)O)NC1=O` (single isomer, unassigned) [d-2G3-METE], the half-maximal inhibitory concentration (IC50) is 100 µM in experiment [1] and 436 µM in experiment [2].

Regarding `CC(C)C[C@@H]1NC(=O)[C@@H](NC(=O)[C@@H]2CCCN2C(=O)CN)CSCC[C@@H](C(=O)N2CCC[C@H]2C(=O)NCC(=O)O)NC(=O)[C@H](CC(C)C)NC(=O)[C@H](CCCCN)NC(=O)CNC(=O)[C@H](CC(C)C)NC(=O)[C@H](C(C)C)NC(=O)CNC1=O` (single isomer, unassigned) [l-2G3-METE], the IC50 came to 209 µM in experiment [1] and 486 µM in experiment [2].

In the case of `CC(C)C[C@@H]1NC(=O)C(NC(=O)[C@@H]2CCCN2C(=O)CN)CSC[C@@H](C(=O)N2CCC[C@H]2C(=O)NCC(=O)O)NC(=O)[C@H](CC(C)C)NC(=O)[C@H](CCCCN)NC(=O)CNC(=O)[C@H](CC(C)C)NC(=O)[C@H](C(C)C)NC(=O)CNC1=O` (stereo partly shown) [2G3-MMTE], the half-maximal inhibitory concentration (IC50) in experiment [1] and in experiment [2] was over 678 µM in each case.

Consider `CC(C)C[C@@H]1NC(=O)[C@@H](NC(=O)[C@@H]2CCCN2C(=O)CNC(=O)[C@H](C)N)CCSC[C@@H](C(=O)N2CCC[C@H]2C(=O)NCC(=O)O)NC(=O)[C@H](CC(C)C)NC(=O)[C@H](CCCCN)NC(=O)CNC(=O)[C@H](CC(C)C)NC(=O)[C@H](C(C)C)NC(=O)CNC1=O` [3G3-EMTE] (H-AGP[Abu(4-yl)]LGVLGKLCPG-OH; thioether 4-12; N-terminus and C-terminus assumed), for which the half-maximal inhibitory concentration (IC50) in experiment [1] is about 1120 µM.

Consider `CC(C)C[C@@H]1NC(=O)C(NC(=O)[C@@H]2CCCN2C(=O)CNC(=O)[C@H](C)N)CSC[C@@H](C(=O)N2CCC[C@H]2C(=O)NCC(=O)O)NC(=O)[C@H](CC(C)C)NC(=O)[C@H](CCCCN)NC(=O)CNC(=O)[C@H](CC(C)C)NC(=O)[C@H](C(C)C)NC(=O)CNC1=O` (stereo partly shown) [3G3-MMTE], for which the half-inhibitory concentration (IC50) in experiment [1] and in experiment [2] was about 1050 µM throughout.

`CC(C)C[C@@H]1NC(=O)[C@H](CCCCN)NC(=O)CNC(=O)[C@H](CC(C)C)NC(=O)[C@H](C(C)C)NC(=O)CNC(=O)[C@H](CC(C)C)NC(=O)[C@@H](N)CCSCC[C@@H](C(N)=O)NC1=O` [G3-EETE] (H-[hCys]LGVLGKL[Abu(4-yl)]-NH2; thioether 1-9): the values for the IC50 in experiment [1] and in experiment [2] were 89 µM and 40 µM, respectively.

For `CC(C)C[C@@H]1NC(=O)[C@H](CCCCN)NC(=O)CNC(=O)[C@H](CC(C)C)NC(=O)[C@H](C(C)C)NC(=O)CNC(=O)[C@H](CC(C)C)NC(=O)[C@@H](N)CCSC[C@@H](C(N)=O)NC1=O` [G3-EMTE] (H-[Abu(4-yl)]LGVLGKLC-NH2; thioether 1-9), the IC50 in experiment [1] amounted to 52 µM; in experiment [2], 34 µM. Moreover, in experiment [1] (general statement on Table 1 (sera ACA-6501 and ACA-6701)), the “biological activity in comparison with the corresponding disulfide cyclic peptide” value is reported as “more active than the disulfide peptide G3”. In addition, the “activity relative to disulfide peptide G3” value in experiment [1] (patient ACA-6501) was “about twice as active as G3”.

With `CC(C)C[C@@H]1NC(=O)[C@H](CCCCN)NC(=O)CNC(=O)[C@H](CC(C)C)NC(=O)[C@H](C(C)C)NC(=O)CNC(=O)[C@H](CC(C)C)NC(=O)[C@@H](N)CSCC[C@@H](C(N)=O)NC1=O` [G3-METE] (H-CLGVLGKL[Abu(4-yl)]-NH2; thioether 1-9), the results for the IC50 in experiment [1] and in experiment [2] were 104 µM and 36 µM, respectively.

For the compound `CC(C)C[C@@H]1NC(=O)C(N)CSC[C@@H](C(N)=O)NC(=O)[C@H](CC(C)C)NC(=O)[C@H](CCCCN)NC(=O)CNC(=O)[C@H](CC(C)C)NC(=O)[C@H](C(C)C)NC(=O)CNC1=O` (stereo partly shown) [G3-MMTE], the IC50 in experiment [1] was 126 µM; in experiment [2] it was 57 µM.
